Experimental data from ChEMBL document CHEMBL1133333, “Structural comparison between type I and type II antagonists: possible implications in the drug design of AT1 antagonists” (Bioorg Med Chem Lett, 2000).

Biological target: T1, Angiotensin II receptor (AT-1) type-1 (Rattus norvegicus, UniProt P29089+P25095)
T1 sequence (P29089 whole entry): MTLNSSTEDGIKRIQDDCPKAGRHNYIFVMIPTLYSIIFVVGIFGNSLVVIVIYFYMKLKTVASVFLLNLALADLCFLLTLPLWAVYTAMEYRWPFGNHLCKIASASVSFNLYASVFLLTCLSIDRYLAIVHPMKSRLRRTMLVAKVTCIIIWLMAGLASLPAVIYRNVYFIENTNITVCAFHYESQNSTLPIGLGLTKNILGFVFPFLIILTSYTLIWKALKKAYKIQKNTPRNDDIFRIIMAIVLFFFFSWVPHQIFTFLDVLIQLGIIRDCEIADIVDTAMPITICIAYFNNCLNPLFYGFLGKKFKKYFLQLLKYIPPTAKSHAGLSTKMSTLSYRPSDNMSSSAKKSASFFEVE
T1 sequence (P25095 whole entry): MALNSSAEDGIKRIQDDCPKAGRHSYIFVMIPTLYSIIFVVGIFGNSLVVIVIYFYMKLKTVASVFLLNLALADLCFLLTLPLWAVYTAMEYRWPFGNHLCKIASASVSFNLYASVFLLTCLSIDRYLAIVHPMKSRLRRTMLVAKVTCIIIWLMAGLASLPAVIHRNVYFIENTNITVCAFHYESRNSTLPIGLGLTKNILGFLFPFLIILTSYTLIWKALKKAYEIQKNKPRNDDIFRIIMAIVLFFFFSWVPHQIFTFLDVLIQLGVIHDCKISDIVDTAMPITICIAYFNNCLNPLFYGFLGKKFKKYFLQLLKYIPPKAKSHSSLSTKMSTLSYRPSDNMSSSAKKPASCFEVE
Experiment: Antagonistic activity against Angiotensin II receptor type 1 in rat uterus
Assay type: functional, tissue-based

First: CC[C@H](C)[C@H](NC(=O)[C@H](Cc1ccc(OC)cc1)NC(=O)[C@@H](NC(=O)[C@H](CCCN=C(N)N)NC(=O)[C@@H](N)CC(=O)O)C(C)C)C(=O)N[C@@H](Cc1c[nH]cn1)C(=O)N1CCC[C@H]1C(=O)N[C@@H](CCO)C(=O)O
Second: CC[C@H](C)[C@H](NC(=O)[C@H](Cc1ccc(O)cc1)NC(=O)[C@@H](NC(=O)[C@H](CCCN=C(N)N)NC(=O)[C@@H](N)CC(=O)O)C(C)C)C(=O)N[C@@H](Cc1c[nH]cn1)C(=O)N1CCC[C@H]1C(=O)N[C@@H](CCO)C(=O)O
The pA2 of the first is lower: 5.4 for the first, 6.7 for the second.

First: CC[C@H](C)[C@H](NC(=O)[C@@H]1CCCN1C(=O)[C@H](Cc1c[nH]cn1)NC(=O)[C@@H](NC(=O)[C@H](Cc1ccc(OC)cc1)NC(=O)[C@@H](NC(=O)[C@H](CCCN=C(N)N)NC(=O)CNC)C(C)C)[C@@H](C)CC)C(=O)O
Second: CC[C@H](C)[C@H](NC(=O)[C@H](Cc1ccc(OC)cc1)NC(=O)[C@@H](NC(=O)[C@H](CCCN=C(N)N)NC(=O)CNC)C(C)C)C(=O)N[C@@H](Cc1c[nH]cn1)C(=O)N1CCC[C@H]1C(=O)N[C@@H](CCO)C(=O)O
The pA2 of the first is higher: 6.6 for the first, 5.7 for the second.

Compared with CC[C@H](C)[C@H](NC(=O)[C@H](Cc1ccc(O)cc1)NC(=O)[C@@H](NC(=O)[C@H](CCCN=C(N)N)NC(=O)CNC)C(C)C)C(=O)N[C@@H](Cc1c[nH]cn1)C(=O)N1CCC[C@H]1C(=O)N[C@@H](CCO)C(=O)O, CC[C@H](C)[C@H](NC(=O)[C@H](Cc1ccc(OC)cc1)NC(=O)[C@@H](NC(=O)[C@H](CCCN=C(N)N)NC(=O)CNC)C(C)C)C(=O)N[C@@H](Cc1c[nH]cn1)C(=O)N1CCC[C@H]1C(=O)N[C@@H](Cc1ccccc1)C(=O)O is lower in pA2: 7.8 for the first, 7.5 for the second.

CC[C@H](C)[C@H](NC(=O)[C@H](Cc1ccc(O)cc1)NC(=O)[C@@H](NC(=O)[C@@H](N)CCCN=C(N)N)C(C)C)C(=O)N[C@@H](Cc1c[nH]cn1)C(=O)N1CCC[C@H]1C(=O)N[C@@H](CCO)C(=O)O gave a pA2 of under 4.8.
Compound CC[C@H](C)[C@H](NC(=O)[C@H](Cc1ccc(OC)cc1)NC(=O)[C@@H](NC(=O)[C@@H](N)CCCN=C(N)N)C(C)C)C(=O)N[C@@H](Cc1c[nH]cn1)C(=O)N1CCC[C@H]1C(=O)N[C@@H](CCO)C(=O)O has a pA2 of under 4.8.
